Here are results for two molecules from patent US20060089387A1, “Stabilized pharmaceutical composition comprising antidiabetic agent” (priority 2004, published 2006).

Series [1] is described as follows: Solubility (complete dissolution) in solvents. The format is physicochemical. The settings on record: in words.
Series [2] in a line: pKa of free rosiglitazone and free pioglitazone. It counts as physicochemical.

For `CCc1ccc(CCOc2ccc(CC3SC(=O)NC3=O)cc2)nc1` (racemic) [free pioglitazone, [(±)5-[[2-(5-ethyl-2-pyridinyl)ethoxyl]phenyl]methyl]-thiazolidine-2,4-dione], the water solubility entry in series [1] was “poorly water-soluble”. In series [2], this molecule showed a pKa1 of 6.5 and a pKa2 of 6.1.
The like results for `CN(CCOc1ccc(CC2SC(=O)NC2=O)cc1)c1ccccn1` (racemic) [free rosiglitazone, (±)5-[4-[2-(N-methyl-N-(2-pyridyl)amino)ethoxy]benzyl]thiazolidine-2,4-dione] were, in that order, “poorly water-soluble”, 6.8 and 6.1.
